Data published in the supplement of paper PMC10307832.

What was measured:
Assay in all cases: relative viability (nuclei count vs DMSO), 5 days (fraction); higher = more cells survive
[1] = compound: C1CC(C1)(C(=O)O)C(=O)O.[NH2-].[NH2-].[Pt+2] [Carboplatin] + CC(=O)c1c(C)c2cnc(Nc3ccc(N4CCNCC4)cn3)nc2n(C2CCCC2)c1=O [Palbociclib] (partner 0.5 µM)
In short: (§1)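 Each reported value is a median over duplicate plates. It expresses relative viability: treated-well nuclei count divided by vehicle-well nuclei count. Lung cancer cell lines in 1536-well plates were dosed by pin tool a day after seeding, alone with one drug or with a fixed anchor-drug dose plus five library-drug doses (not always all listed) in √10 steps, and nuclei were counted after 5 days.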

[2] = compound: CC[C@H](C)N1C=C(C2=C(C=C(C=C21)C3=CN=C(C=C3)N4CCNCC4)C(=O)NCC5=C(C=C(NC5=O)C)C)C [GSK126] + O=C(c1cc(Cc2n[nH]c(=O)c3ccccc23)ccc1F)N1CCN(C(=O)C2CC2)CC1 [Olaparib] (partner 8 µM)
In short: as §1

[3] = compound: NS(=O)(=O)OC[C@@H]1C[C@@H](n2ccc3c(N[C@H]4CCc5ccccc54)ncnc32)C[C@@H]1O [MLN4924] + N=C(N)NC(=N)NCCc1ccccc1 [Phenformin] (partner 250 µM)
In short: as §1

[4] = compound: CC[C@H](C)N1C=C(C2=C(C=C(C=C21)C3=CN=C(C=C3)N4CCNCC4)C(=O)NCC5=C(C=C(NC5=O)C)C)C [GSK126] + N=C(N)NC(=N)NCCc1ccccc1 [Phenformin] (partner 250 µM)
In short: as §1

Row | Cell Line | relative viability ([1]; first compound 0.08 µM) | relative viability ([1]; first compound 0.253 µM) | relative viability ([1]; first compound 0.8 µM) | relative viability ([1]; first compound 2.53 µM) | relative viability ([1]; first compound 8 µM) | relative viability ([2]; first compound 0.08 µM) | relative viability ([2]; first compound 0.253 µM) | relative viability ([2]; first compound 0.8 µM) | relative viability ([2]; first compound 2.53 µM) | relative viability ([2]; first compound 8 µM) | relative viability ([3]; first compound 0.04 µM) | relative viability ([3]; first compound 0.1265 µM) | relative viability ([3]; first compound 0.4 µM) | relative viability ([3]; first compound 1.265 µM) | relative viability ([3]; first compound 4 µM) | relative viability ([4]; first compound 0.08 µM) | relative viability ([4]; first compound 0.253 µM) | relative viability ([4]; first compound 0.8 µM) | relative viability ([4]; first compound 2.53 µM) | relative viability ([4]; first compound 8 µM)
1 | NCI-H661 | 0.385 | 0.428 | 0.399 | 0.416 | 0.374 | 0.706 | 0.74 | 0.722 | 0.689 | 0.705 | 0.289 | 0.329 | 0.294 | 0.286 | 0.234 | 0.277 | 0.264 | 0.691 | 0.269 | 0.244
2 | NCI-H727 | 0.732 | 0.668 | 0.726 | 0.573 | 0.591 | 0.866 | 0.805 | 0.68 | 0.812 | 0.646 | 0.827 | 0.438 | 0.278 | 0.292 | 0.33 | 0.469 | 0.622 | 0.587 | 0.624 | 0.533
3 | NCI-H1734 | 0.367 | 0.342 | 0.356 | 0.362 | 0.311 | 0.633 | 0.685 | 0.628 | 0.701 | 0.756 | 0.339 | 0.44 | 0.229 | 0.118 | 0.122 | 0.474 | 0.361 | 0.393 | 0.382 | 0.418
4 | EMC-BAC-2 | 0.533 | 0.516 | 0.525 | 0.536 | 0.469 | 0.512 | 0.436 | 0.502 | 0.436 | 0.47 | 0.37 | 0.424 | 0.296 | 0.193 | 0.218 | 0.606 | 0.528 | 0.505 | 0.483 | 0.482
5 | EKVX | 0.364 | 0.513 | 0.385 | 0.354 | 0.341 | 0.929 | 1 | 0.808 | 1.11 | 0.816 | 0.228 | 0.221 | 0.239 | 0.175 | 0.138 | 0.229 | 0.252 | 0.246 | 0.218 | 0.231
6 | NCI-H358 | 0.141 | 0.148 | 0.144 | 0.149 | 0.183 | 0.705 | 0.723 | 0.555 | 0.613 | 0.751 | 0.354 | 0.366 | 0.171 | 0.0905 | 0.0916 | 0.465 | 0.306 | 0.379 | 0.402 | 0.299
7 | LOU-NH91 | 0.539 | 0.455 | 0.44 | 0.507 | 0.515 | 0.938 | 0.942 | 0.879 | 0.956 | 0.887 | 0.6 | 0.853 | 0.763 | 0.467 | 0.425 | 0.785 | 0.755 | 0.692 | 0.662 | 0.639
8 | NCI-H1437 | 0.302 | 0.316 | 0.273 | 0.272 | 0.31 | 0.649 | 0.621 | 0.605 | 0.554 | 0.575 | 0.325 | 0.337 | 0.388 | 0.258 | 0.195 | 0.298 | 0.362 | 0.269 | 0.319 | 0.311
9 | H3255 | 0.303 | 0.303 | 0.308 | 0.275 | 0.306 | 0.571 | 0.553 | 0.517 | 0.582 | 0.57 | 0.374 | 0.331 | 0.265 | 0.264 | 0.325 | 0.354 | 0.382 | 0.352 | 0.341 | 0.368
10 | NCI-H1666 | 0.687 | 0.685 | 0.549 | 0.602 | 0.6 | 0.745 | 0.723 | 0.742 | 0.729 | 0.76 | 0.509 | 0.453 | 0.449 | 0.265 | 0.337 | 0.586 | 0.595 | 0.598 | 0.522 | 0.569
11 | NCI-H2228 | 0.898 | 0.841 | 0.654 | 0.737 | 0.552 | 0.649 | 0.75 | 0.511 | 0.669 | 0.691 | 0.327 | 0.38 | 0.194 | 0.134 | 0.146 | 0.43 | 0.295 | 0.376 | 0.337 | 0.365
12 | HCC-78 | 0.446 | 0.495 | 0.491 | 0.464 | 0.433 | 0.742 | 0.822 | 0.807 | 0.822 | 0.617 | 0.694 | 0.634 | 0.888 | 0.219 | 0.203 | 0.816 | 0.773 | 0.604 | 0.646 | 0.692
13 | CAL-12T | 0.402 | 0.514 | 0.506 | 0.483 | 0.406 | 0.809 | 0.713 | 0.758 | 0.829 | 0.643 | 0.511 | 0.511 | 0.292 | 0.214 | 0.129 | 0.617 | 0.568 | 0.572 | 0.519 | 0.63
14 | SK-LU-1 | 0.424 | 0.386 | 0.363 | 0.415 | 0.355 | 0.555 | 0.452 | 0.45 | 0.396 | 0.482 | 0.514 | 0.558 | 0.22 | 0.0997 | 0.131 | 0.674 | 0.521 | 0.553 | 0.582 | 0.603
15 | LU99A | 0.468 | 0.392 | 0.39 | 0.424 | 0.314 | 0.245 | 0.258 | 0.266 | 0.243 | 0.232 | 0.477 | 0.622 | 0.437 | 0.196 | 0.213 | 1.09 | 0.881 | 0.94 | 0.93 | 0.855
16 | RERF-LC-KJ | 1.22 | 1.09 | 0.894 | 0.815 | 0.651 | 0.935 | 0.979 | 1.04 | 0.826 | 0.83 | 0.397 | 0.351 | 0.204 | 0.255 | 0.249 | 0.484 | 0.417 | 0.396 | 0.4 | 0.396
